Test results as given in patent publication EP4471048A1, “PEPTIDE INHIBITORS OF INTERLEUKIN-23 RECEPTOR” (Zealand Pharma A/S, priority 2023, dated 2024).
Read-outs that look alike come from different tables or passages of the source. Where a SMILES comes first, the peptide text is derived from it. Bridges are numbered along the chain shown (N, C = ends). [ ]: non-standard residue; d: D form. 2Nal = N[C@@H](Cc1ccc2ccccc2c1)C(=O)O; AEF = NCCOc1ccc(C[C@H](N)C(=O)O)cc1; 3Pal = N[C@@H](Cc1cccnc1)C(=O)O; Aad = N[C@@H](CCCC(=O)O)C(=O)O; αMeL = CC(C)C[C@](C)(N)C(=O)O; dOrn = NCCC[C@@H](N)C(=O)O; Orn = NCCC[C@H](N)C(=O)O; Dab = NCC[C@H](N)C(=O)O; βAla = NCCC(=O)O

Key:
[1] = target: T1, human IL-23R (Homo sapiens, UniProt Q5VWK5); assay: biochemical; conditions: for Emax: read-out: % displacement (hIL-23R NIuc)
T1 sequence (Q5VWK5 22-629): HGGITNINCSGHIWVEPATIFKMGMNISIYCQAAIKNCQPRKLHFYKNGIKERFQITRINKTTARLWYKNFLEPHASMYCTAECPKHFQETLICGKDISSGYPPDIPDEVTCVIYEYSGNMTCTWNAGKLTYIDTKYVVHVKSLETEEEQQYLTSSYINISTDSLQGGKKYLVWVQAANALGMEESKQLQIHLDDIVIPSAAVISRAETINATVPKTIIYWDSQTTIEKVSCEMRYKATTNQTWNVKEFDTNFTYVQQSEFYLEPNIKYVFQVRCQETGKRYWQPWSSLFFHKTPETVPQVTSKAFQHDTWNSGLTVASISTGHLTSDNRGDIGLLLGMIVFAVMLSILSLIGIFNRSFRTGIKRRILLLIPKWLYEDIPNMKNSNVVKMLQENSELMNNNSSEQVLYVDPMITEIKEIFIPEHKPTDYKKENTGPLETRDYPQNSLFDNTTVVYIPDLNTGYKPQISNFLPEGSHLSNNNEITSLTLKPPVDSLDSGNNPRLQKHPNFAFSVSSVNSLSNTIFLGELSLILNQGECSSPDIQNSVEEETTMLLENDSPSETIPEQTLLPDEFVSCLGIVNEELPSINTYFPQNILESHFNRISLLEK
How it was run: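 Membranes from HEK293 cells stably expressing Nluc-tagged human IL-23R were incubated 2 h at room temperature with test compound and a fluorophore-labelled tracer. After substrate addition, loss of BRET (TAMRA over luciferase emission) reported tracer displacement. A 4PL fit gave IC50 values.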

[2] = target: IL-23 mediated signalling (Homo sapiens, UniProt Q5VWK5); assay: Functional inhibition of IL-23 mediated STAT3 signalling (phospho-STAT3 MSD) in DB cells; assay type: cell-based; conditions: for Emax: read-out: hIL-23 (pSTAT3) antagonist % inhibition
Description: Upon binding of IL-23, the IL-23R forms a heterodimer signalling complex together with IL-12R β1, which through the JAK2/STAT3 pathway promotes phosphorylation of STAT3 to form phospho-STAT3.
For compounds tested in this assay, the response was normalized relative to control values to calculate the IC50 and maximal inhibitory response from a concentration response curve of the compound in presence of a fixed concentration of human IL-23.
The assay procedure was as follows. […] Following preincubation of the DB cells with inhibitor for 15 min in a cell incubator (37 °C, 5% CO2), 20 µL of the prepared 3X the EC80 of hIL-23 solution was added to each well and incubated for 90 min in a cell incubator (37 °C, 5% CO2). For some wells buffer only or IL-23 only corresponding to the EC80 was added to obtain readouts needed for normalization. To terminate the assay, the plate was spun at 1000 G for 5 min to pellet cells, the supernatant removed using an 8-channel manual pipette, and then added 50 µL/well Complete Lysis Buffer from the MSD STAT3 kit (Cat# K150SVD, Mesoscale) to the cell pellet. To completely lyse cells to release phospho-STAT3 for detection, the plate was shaken for 10 min at room temperature (500 rpm) sealed with aluminium foil and placed at -80 °C for a minimum of 15 min. Detection of the phospho-STAT3 level in the cell lysate from the individual wells was determined using the MSD STAT3 kit (Cat# K150SVD, Mesoscale) and read on a Meso QuickPlex SQ 120 plate reader (Mesoscale).
For data analysis raw data counts from the Meso QuickPlex SQ 120 plate reader were normalized relative to the response by the EC80 of h1L-23 alone (no compound added) and the buffer level. Compound potency (IC50) and maximal inhibitory response (% inhibition) were estimated by computer-aided curve fitting using a 4-parameter logistic (4PL) nonlinear model. […] Table 3-2: hIL-23 (pSTAT3) antagonist IC50 and % inhibition

[3] = Peptide stability in simulated intestinal fluid (SIF); assay type: in vitro ADME; conditions: pig, 37 °C, porcine pancreatin; for remaining at 1 h, 10 µM: pH 6.8, 1 h; for remaining at 4 h, 10 µM: pH 6.8, 4 h, read-out: SIF (% remaining 4 h)
How it was run: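 Peptides were incubated at 37 °C with gentle shaking in pH 6.8 potassium phosphate SIF containing porcine pancreatin (10 g/L). Supernatants were analysed by LC-HRMS. Percent remaining at each timepoint, including 4 h, was calculated relative to time zero from absolute peak areas.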

[4] = Peptide stability in simulated gastric fluid (SGF); assay type: in vitro ADME; conditions: pig, simulated gastric fluid (SGF) with porcine pepsin (3.2 g/L), pH 1.2, 10 µM, 37 °C, porcine pepsin; for remaining at 1 h, 10 µM: pH 1.2, 1 h, read-out: SGF (% remaining 1 h); for remaining at 4 h, 10 µM: pH 1.2, 4 h, read-out: SGF (% remaining 4 h)
How it was run: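 Peptide incubated at 37 °C with gentle shaking in SGF (NaCl, pH 1.2). Samples centrifuged, diluted and analysed by LC-HRMS; percent remaining at each timepoint from absolute peak areas relative to time zero, with 4 h as the reference point.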

[5] = Table 3-2, maximal inhibitory response, DB cells, hIL-23 at EC80

Row | SMILES | IC50 [1] | Emax [1] | IC50 ([2]; SAR tables 2-1 to 2-7, DB cells, hIL-23 at EC80, read-out: IC50 (pSTAT3)) | Emax [2, 5] | IC50 ([2]; Table 3-2, DB cells, hIL-23 at EC80, read-out: hIL-23 (pSTAT3) antagonist IC50) | % displacement (hIL-23R NIuc) [1] | remaining at 1 h, 10 µM [3] | remaining at 4 h, 10 µM [3] | remaining at 1 h, 10 µM [4] | remaining at 4 h, 10 µM [4] | Emax ([2]; DB)
1 | CC(C)C[C@]1(C)NC(=O)[C@H](Cc2c[nH]c3ccccc23)NC(=O)[C@H](Cc2c[nH]c3ccccc23)NC(=O)[C@@H]2CSCC(=O)CSC[C@H](NC(=O)[C@H]([C@@H](C)O)NC(=O)[C@@H](NC(=O)CN)CSCC(=O)CSC[C@@H](C(=O)N[C@@H](CO)C(N)=O)NC1=O)C(=O)N[C@@H](Cc1c[nH]c3ccccc13)C(=O)N[C@@H](CCC(=O)O)C(=O)N2 (single isomer, unassigned) [I5 (isomer 3), H-GC(1a)TC(2a)WEC(2a)WW[2-Me-Leu]C(1a)S-[NH2], reference compound] | 90 nM |  |  |  |  |  |  |  |  |  | 91%
2 | CC(C)C[C@]1(C)NC(=O)[C@H](Cc2ccc3ccccc3c2)NC(=O)[C@H](Cc2ccc(OCCN)cc2)NC(=O)[C@@H]2CCC(=O)N[C@H](CCCNC(=O)CCC[C@@H](C(=O)N[C@@H](CCN)C(=O)N[C@@H](Cc3cccnc3)C(N)=O)NC1=O)C(=O)N[C@@H]([C@@H](C)O)C(=O)N[C@@H](C(C)C)C(=O)N[C@@H](Cc1c[nH]c3ccccc13)C(=O)N[C@@H](CCC(N)=O)C(=O)N2 [Compound 6, [{d}Orn](1c)(6c)^†TVWQE(6c)[Y(2-aminoethoxy)][2-Nal][2-Me-Leu][hGlu](1c)[Dab][3-(3-Pyridyl)-Ala]-[NH2]] ([dOrn]TVWQE[AEF][2Nal][αMeL][Aad][Dab][3Pal]-NH2; lactam 1-10, N-6) | 0.022 nM |  |  | 104% |  | 104% |  |  |  |  | 
3 | CNC(=O)[C@H](Cc1cccnc1)NC(=O)[C@H](CCN)NC(=O)[C@@H]1CCC(=O)NCCCC[C@@H]2NC(=O)CC[C@H](NC(=O)[C@H](CCC(N)=O)NC(=O)[C@H](Cc3c[nH]c4ccccc34)NC(=O)CCCNC2=O)C(=O)N[C@@H](Cc2ccc(OCCN)cc2)C(=O)N[C@@H](Cc2ccc3ccccc3c2)C(=O)N[C@@](C)(CC(C)C)C(=O)N1 [Compound 98, K(1c)(6c)^†[4-Aminobutanoyl]WQE(6c)[Y(2-aminoethoxy)][2-Nal][2-Me-Leu]E(1c)[Dab][3-(3-Pyridyl)-Ala]-[NHMe]] | 0.024 nM |  |  |  |  | 101% | 88% | 58% | 101% | 96% | 
4 | CNC(=O)[C@H](Cc1cccnc1)NC(=O)[C@H](CCN)NC(=O)[C@@H]1CCC(=O)N[C@H]2CCCCNC(=O)CC[C@H](NC(=O)[C@H](CCC(N)=O)NC(=O)[C@H](Cc3c[nH]c4ccccc34)NC(=O)CNC2=O)C(=O)N[C@@H](Cc2ccc(OCCN)cc2)C(=O)N[C@@H](Cc2ccc3ccccc3c2)C(=O)N[C@@](C)(CC(C)C)C(=O)N1 [Compound 104, [iso-Lys](1c)^†(6c)GWQE(6c)[Y(2-aminoethoxy)][2-Nal][2-Me-Leu]E(1c)[Dab][3-(3-Pyridyl)-Ala]-[NHMe]] | 0.5 nM | 101% |  |  |  |  | 106% | 89% | 100% | 106% | 

Further lines, with some results ahead:

Row | IC50 [1] | Emax [1] | IC50 ([2]; SAR tables 2-1 to 2-7, DB cells, hIL-23 at EC80, read-out: IC50 (pSTAT3)) | Emax [2, 5] | IC50 ([2]; Table 3-2, DB cells, hIL-23 at EC80, read-out: hIL-23 (pSTAT3) antagonist IC50) | % displacement (hIL-23R NIuc) [1] | remaining at 1 h, 10 µM [3] | remaining at 4 h, 10 µM [3] | remaining at 1 h, 10 µM [4] | remaining at 4 h, 10 µM [4] | SMILES | Emax ([2]; DB)
5 | 0.021 nM | 100% | 0.11 nM | 99% |  |  |  |  |  |  | CC(C)C[C@]1(C)NC(=O)[C@H](Cc2ccc3ccccc3c2)NC(=O)[C@H](Cc2ccc(OCCN)cc2)NC(=O)[C@@H]2CCC(=O)N[C@@H](CCCCNC(=O)CC[C@@H](C(=O)N[C@@H](CCN)C(=O)N[C@@H](Cc3cccnc3)C(N)=O)NC1=O)C(=O)N[C@@H]([C@@H](C)O)C(=O)N[C@@H](C(C)C)C(=O)N[C@@H](Cc1c[nH]c3ccccc13)C(=O)N[C@@H](CCC(N)=O)C(=O)N2 [Compound 2, K(1c)(6c)^†TVWQE(6c)[Y(2-aminoethoxy)][2-Nal][2-Me-Leu]E(1c)[Dab][3-(3-Pyridyl)-Ala]-[NH2]] (KTVWQE[AEF][2Nal][αMeL]E[Dab][3Pal]-NH2; lactam 1-10, N-6) | 
6 | 0.091 nM | 105% |  | 101% | 1.5 nM |  |  |  |  |  | CC(C)C[C@]1(C)NC(=O)[C@H](Cc2ccc3ccccc3c2)NC(=O)[C@H](Cc2ccc(OCCN)cc2)NC(=O)[C@@H]2CC(=O)N[C@H](CCCCNC(=O)CC[C@@H](C(=O)N[C@@H](CCN)C(=O)N[C@@H](Cc3cccnc3)C(N)=O)NC1=O)C(=O)N[C@@H]([C@@H](C)O)C(=O)N[C@@H](C(C)C)C(=O)N[C@@H](Cc1c[nH]c3ccccc13)C(=O)N[C@@H](CCC(N)=O)C(=O)N2 [Compound 3, [{d}K](1c)(6c)^†TVWQD(6c)[Y(2-aminoethoxy)][2-Nal][2-Me-Leu]E(1c)[Dab][3-(3-Pyridyl)-Ala]-[NH2]] ([dK]TVWQD[AEF][2Nal][αMeL]E[Dab][3Pal]-NH2; lactam 1-10, N-6) | 
7 | 0.35 nM | 100% |  |  |  |  | 98% | 57% | 116% | 115% | CNC(=O)[C@H](Cc1cccnc1)NC(=O)[C@H](CCN)NC(=O)[C@@H]1CCC(=O)NCCC[C@@H]2NC(=O)CC[C@H](NC(=O)[C@H](CCC(N)=O)NC(=O)[C@H](Cc3c[nH]c4ccccc34)NC(=O)CCNC2=O)C(=O)N[C@@H](Cc2ccc(OCCN)cc2)C(=O)N[C@@H](Cc2ccc3ccccc3c2)C(=O)N[C@@](C)(CC(C)C)C(=O)N1 [Compound 91, [Orn](1c)(6c)^†[3-Aminopropanoyl]WQE(6c)[Y(2-aminoethoxy)][2-Nal][2-Me-Leu]E(1c)[Dab][3-(3-Pyridyl)-Ala]-[NHMe]] ([Orn][βAla]WQE[AEF][2Nal][αMeL]E[Dab][3Pal]-NHMe; lactam 1-9, N-5) | 
8 | 0.03 nM | 91% |  |  |  |  | 103% | 105% | 105% | 105% | CC[C@H](C)[C@H]1CC(=O)N[C@@H](Cc2c[nH]c3ccccc23)C(=O)N[C@@H](CCC(N)=O)C(=O)N[C@H]2CCC(=O)N[C@@H](CCCCNC(=O)CC[C@@H](C(=O)N[C@@H](CCN)C(=O)N[C@@H](Cc3cccnc3)C(=O)NC)NC(=O)[C@](C)(CC(C)C)NC(=O)[C@H](Cc3ccc4ccccc4c3)NC(=O)[C@H](Cc3ccc(OCCN)cc3)NC2=O)C(=O)N1 [Compound 96, K(1c)(6c)^†[beta-hlle]WQE(6c)[Y(2-aminoethoxy)][2-Nal][2-Me-Leu]E(1c)[Dab][3-(3-Pyridyl)-Ala]-[NHMe]] | 
